{"source": "patent US8173595B2", "about": "“Methods and compositions for the inhibition of thrombus formation” (The Board of Trustees of the University of Illinois, priority 2004, dated 2012)", "key": {"[1]": {"test_system": "platelets (platelet-rich plasma from healthy donors)", "test": "Ristocetin-induced (vWF-dependent) platelet aggregation in platelet-rich plasma", "type": "cell-based, human", "protocol": "(§1) Platelet preparation and aggregation. Blood was drawn from healthy donors, and was anti-coagulated with 1/10 volume of 3.8% trisodium citrate. Platelet-rich plasma (PRP) was obtained by centrifugation at 300×g for 20 min at 22° C. Platelet aggregation was measured using a turbidometric platelet aggregometer at 37° C. with a stirring speed at 1000 rpm. To examine the effects of peptides, various concentrations of each peptide was preincubated with platelets at 22° C. for 5 min. In some experiments, intergrin inhibitor RGDS (1 mM) was also added to exclude the roles of β3 integrins."}, "[2]": {"molecular_target": "T1, 14-3-3 binding to GPIb-IX (Homo sapiens, UniProt P63104)", "T1 construct": "GPIb-IX: platelet lysate", "T1 sequence (P63104 1-245)": "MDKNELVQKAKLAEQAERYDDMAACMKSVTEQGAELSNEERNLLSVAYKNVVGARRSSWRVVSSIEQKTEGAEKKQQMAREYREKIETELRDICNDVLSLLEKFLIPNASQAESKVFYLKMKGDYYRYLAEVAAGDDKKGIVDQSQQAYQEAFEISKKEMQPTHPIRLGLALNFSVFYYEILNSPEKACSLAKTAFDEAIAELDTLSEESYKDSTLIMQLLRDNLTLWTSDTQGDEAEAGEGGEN", "test": "Binding of GPIb-IX from platelet lysates to 14-3-3-conjugated beads (Western blot)", "conditions": "recombinant 14-3-3-MBP beads, FIG. 1B", "protocol": "14-3-3 binding to GPIb-IX. Binding of GPIb-IX to 14-3-3-conjugated beads were performed as previously described (Du et al., J. Biol. Chem., 271:7362-7367 (1996)). Briefly, 14-3-3-conjugated Sepharose 4B beads and maltose-binding protein (MBP)-conjugated control beads were preincubated with various concentrations of synthetic peptides at 4° C. for 1 h, and then with platelet lysates for an additional 1 h. The beads were washed three times. Bound GPIb-IX was detected by Western blot with a monoclonal antibody against GPIbα, WM23."}, "[3]": {"test_system": "GPIb-IX-dependent platelet agglutination", "test": "Ristocetin-induced GPIb-IX-specific platelet agglutination in the presence of RGDS", "type": "cell-based, human", "conditions": "PRP, in the presence of 1 mM RGDS, ristocetin 1.25 mg/ml, FIG. 2A, 2B", "protocol": "as §1"}, "[4]": {"test_system": "platelets (platelet-rich plasma)", "test": "Platelet aggregation induced by ADP, collagen or thromboxane A2 analog U46619", "type": "cell-based, human", "conditions": "collagen, thromboxane A2 analog U46619, FIGS. 2C, 2D, 2E", "protocol": "as §1"}, "platelet adhesion to vWF": {"test_system": "platelet adhesion to vWF", "test": "Platelet adhesion under flow in vWF-coated glass capillaries", "type": "cell-based", "conditions": "washed platelets, in the presence of RGDS, FIG. 4A", "protocol": "Platelet adhesion under flow. Washed platelets (3×10^8/ml) were preincubated with various concentrations of synthetic peptides at 22° C. for 10 min, the platelets were perfused into the vWF-coated glass capillaries using a PhD syringe pump (Harvard Apparatus Inc.) at various shear rates for 8 min. Transient adhesion of platelets on the vWF-coated surface was recorded on video cassette recorder. Adherent platelets were counted in 10 randomly selected fields of 0.25 mm^2 within a 10 second time period."}, "[5]": {"test_system": "vWF binding to GPIb-IX on washed human platelets", "test": "Flow cytometry analysis of ristocetin-induced vWF binding to platelets", "type": "cell-based", "conditions": "10 mM EDTA or RGDS, ristocetin 1 mg/ml, FIG. 3", "protocol": "Flow cytometry analysis of VWF binding to platelets. Flow cytometry analysis of vWF binding to platelets has been described previously 8,9. Washed platelets (1.0×10^7/ml) were prepared as described previously (Englund et al., J. Biol. Chem., 276:16952-16959 (2001); Bodnar et al., J. Biol. Chem. 277:47080-47087 (2002)), and resuspended in phosphate-buffered saline (PBS) solution (0.01 M NaH2PO4, 0.15 M NaCl, pH 7.4) containing 10 mM EDTA and 1% BSA. Platelets were preincubated with various concentrations of synthetic peptides at 22° C. for 10 min before incubating with purified vWF (35 μg/ml) and ristocetin (1.0 mg/ml) at 22° C. for 30 min. Platelets were washed once, further incubated in the same buffer containing 10 μg/ml FITC-labeled SZ-29 in the dark at 22° C. for 30 min and then analyzed by flow cytometry. As negative controls, platelets were incubated in the presence of ristocetin alone then incubated with FITC-labeled SZ29."}, "Tail-bleeding time": {"test": "Tail-bleeding time", "type": "in vivo, C57 black mice", "conditions": "infused into jugular vein, 5 min circulation, compared with MαC or MαCsc, p<0.0001, FIG. 4B", "protocol": "Tail-bleeding time. Bleeding times were performed with 6-8-wk-old adult C57 black mice anesthetized with an intraperitoneal injection of avertin. The internal jugular vein was surgically exposed, and a total volume of 50 μl of a peptide (5 mM) was infused using a 27 G needle. Experiments were performed in a double-blinded fashion. After 5 min, tails were amputated 5 mm from the tail tip, and immersed in a tube containing 0.15M NaCl maintained at 37° C. Bleeding was visually followed and timed. Maximum bleeding time allowed was 10 min after which the tail was cauterized. Statistical differences between the groups were examined using Mann-Whitney test and InStat software."}, "platelets": {"test_system": "platelets", "test": "Botrocetin-induced platelet agglutination", "type": "cell-based"}}, "note": "Where no end group is shown, it is not given here. [ ]: non-standard residue; d: D form. The star is where a group is joined. Myristoyl = CCCCCCCCCCCCCC(=O)*; pS = N[C@@H](COP(=O)(O)O)C(=O)O", "data": [{"molecule": "CCCCCCCCCCCCCC(=O)OC(=O)CCCCCCCCCCCCC", "note": "[myristic anhydride (MA), myristic anhydride]", "values": [{"measurement": "ristocetin-induced platelet aggregation", "setting": "[1]; PRP, 100 μM, FIG. 1D, 1E", "value": "no effect"}]}, {"molecule": "C13H27CONH-LSISYGSHR (Myristoyl-LSISYGSHR) [MαCsc, myristoylated scrambled control peptide]", "values": [{"measurement": "binding of GPIb-IX to 14-3-3 beads", "setting": "[2]", "value": "not"}, {"measurement": "ristocetin-induced platelet aggregation", "setting": "[1]; PRP, 100 μM, FIG. 1D, 1E", "value": "no significant effect"}]}, {"molecule": "C13H27CONH-SIRYSGHDL (Myristoyl-SIRYSGHDL) [MSDαC, myristoylated peptide replacing phosphorylated serine 609 with aspartic acid to simulate phosphoserine]", "values": [{"measurement": "ristocetin-induced platelet aggregation", "setting": "[1]; PRP preincubated at room temperature for 5 min, FIG. 5", "value": "completely inhibited"}]}, {"molecule": "C13H27CONH-SIRYSGHSL (Myristoyl-SIRYSGHSL) [MαC]", "values": [{"measurement": "binding of GPIb-IX to 14-3-3 beads", "setting": "[2]", "value": "not"}, {"measurement": "ristocetin-induced platelet aggregation", "setting": "[1]; PRP, 100 μM, FIG. 1D, 1E", "value": "no significant effect"}]}, {"molecule": "C13H27CONH-SIRYSGHpSL (Myristoyl-SIRYSGH[pS]L) [MPαC]", "values": [{"measurement": "ristocetin-induced platelet agglutination", "setting": "[3]", "value": "completely inhibited"}, {"measurement": "platelet aggregation induced by platelet agonists", "setting": "[4]", "value": "no inhibitory effect"}, {"measurement": "binding of GPIb-IX to 14-3-3 beads", "setting": "[2]", "value": "abolished"}, {"measurement": "adhesion of platelets on vWF surface under flow", "setting": "platelet adhesion to vWF", "value": "almost no adhesion"}, {"measurement": "ristocetin-induced vWF binding to platelets", "setting": "[5]", "value": "inhibited"}, {"measurement": "vWF-dependent platelet aggregation induced by ristocetin", "setting": "[1]; PRP preincubated with increasing concentrations of peptide, FIG. 1C", "value": "dose-dependently inhibited"}, {"measurement": "median tail bleeding time", "setting": "Tail-bleeding time", "value": "significantly prolonged"}, {"measurement": "botrocetin-induced platelet agglutination", "setting": "platelets", "value": "inhibited"}]}, {"molecule": "SIRYSGHpSL [PαC]", "values": [{"measurement": "ristocetin-induced platelet aggregation", "setting": "[1]; PRP, 100 μM, FIG. 1D, 1E", "value": "no effect"}]}]}
